The values that follow come from ChEMBL document CHEMBL3045728, “Synthesis, physico-chemical properties, and antimicrobial evaluation of a new series of iron(III) hexadentate chelators” (Med Chem Res, 2013).

The test system of one data set is Staphylococcus aureus. Briefly: Antimicrobial activity against Staphylococcus aureus assessed as growth inhibition incubated for 2 hr measured after 24 hr by turbidity based assay. The class given is functional.
Data set [1] can be described thus: Iron chelating activity of the compound assessed as stability constant of Fe3+-compound complex. Format: physicochemical.
The subject of the next data set is Pseudomonas aeruginosa. Briefly: Antimicrobial activity against Pseudomonas aeruginosa assessed as growth inhibition incubated for 2 hr measured after 24 hr by turbidity based assay. Format: functional.
In another data set the test system is Bacillus subtilis. Briefly: Antimicrobial activity against Bacillus subtilis assessed as growth inhibition incubated for 2 hr measured after 24 hr by turbidity based assay. Format: functional.
The test system of a further data set is Bacillus cereus. Briefly: Antimicrobial activity against Bacillus cereus assessed as growth inhibition incubated for 2 hr measured after 24 hr by turbidity based assay. The class given is functional.
The next data set deals with Escherichia coli. Briefly: Antimicrobial activity against Escherichia coli assessed as growth inhibition incubated for 2 hr measured after 24 hr by turbidity based assay. The class given is functional.
Data set [2] can be described thus: Iron chelating activity of the compound assessed as stability constant of Fe3+-compound complex after 5 min by spectrophotometric titration analysis. The class given is physicochemical.

Structures are written as SMILES. ≈ marks a conversion by molar mass, not a printed value.

For orientation: MIC means the smallest concentration in the dilution series that meets the test's criterion for growth inhibition. For the compound `O=C(O)CN(CCN(CC(=O)O)CC(=O)O)CCN(CC(=O)O)CC(=O)O` [PENTETIC ACID], the MIC is 40 µg/mL (≈ 102 µM) in the data set with Staphylococcus aureus; 80 µg/mL (≈ 203 µM) with Pseudomonas aeruginosa; 80 µg/mL (≈ 203 µM) in the data set with Bacillus subtilis; 80 µg/mL (≈ 203 µM) in the data set on Bacillus cereus; 80 µg/mL (≈ 203 µM) in the data set with Escherichia coli. Besides, in data set [1], the “log K” value stood at 28.6.
`CCCCn1ccc(=O)c(O)c1C(=O)NCCN(CCNC(=O)c1c(O)c(=O)ccn1CCCC)CCNC(=O)c1c(O)c(=O)ccn1CCCC`: the minimum inhibitory concentration (MIC) with Staphylococcus aureus amounted to 80 µg/mL (≈ 110 µM); in the data set on Pseudomonas aeruginosa, 40 µg/mL (≈ 55.1 µM); in the data set on Bacillus subtilis, 80 µg/mL (≈ 110 µM); in the data set with Bacillus cereus it was 80 µg/mL (≈ 110 µM); with Escherichia coli it was 40 µg/mL (≈ 55.1 µM).
For the compound `CCn1ccc(=O)c(O)c1C(=O)NCCN(CCNC(=O)c1c(O)c(=O)ccn1CC)CCNC(=O)c1c(O)c(=O)ccn1CC`, the MIC stood at 40 µg/mL (≈ 62.3 µM) in the data set with Staphylococcus aureus; 16 µg/mL (≈ 24.9 µM) in the data set on Pseudomonas aeruginosa; 40 µg/mL (≈ 62.3 µM) in the data set with Bacillus subtilis; 40 µg/mL (≈ 62.3 µM) with Bacillus cereus; 24 µg/mL (≈ 37.4 µM) in the data set on Escherichia coli. Also, the “log K” value in data set [2] is recorded as 32.6.
As for `O=C(O)C(NCCNC(C(=O)O)c1ccccc1O)c1ccccc1O` (centres undefined), in data set [1], the “log K” value stood at 34.
Take `O=C(NCCN(CCNC(=O)c1[nH]ccc(=O)c1O)CCNC(=O)c1[nH]ccc(=O)c1O)c1[nH]ccc(=O)c1O`: the MIC with Staphylococcus aureus turned out to be 40 µg/mL (≈ 71.7 µM); in the data set with Pseudomonas aeruginosa it was 24 µg/mL (≈ 43 µM); with Bacillus subtilis it was 40 µg/mL (≈ 71.7 µM); in the data set with Bacillus cereus it was 40 µg/mL (≈ 71.7 µM); with Escherichia coli it was 80 µg/mL (≈ 143 µM). In addition, the “log K” value in data set [2] turned out to be 30.7.
For `Cn1ccc(=O)c(O)c1C(=O)NCCN(CCNC(=O)c1c(O)c(=O)ccn1C)CCNC(=O)c1c(O)c(=O)ccn1C`, the MIC with Staphylococcus aureus turned out to be 40 µg/mL (≈ 66.7 µM); in the data set with Pseudomonas aeruginosa, 24 µg/mL (≈ 40 µM); with Bacillus subtilis, 40 µg/mL (≈ 66.7 µM); with Bacillus cereus it was 40 µg/mL (≈ 66.7 µM); with Escherichia coli, 24 µg/mL (≈ 40 µM). For the same compound, in data set [2], the “log K” value worked out at 32.1.
In the case of `CC(=O)N(O)CCCCCNC(=O)CCC(=O)N(O)CCCCCNC(=O)CCC(=O)N(O)CCCCCN` [DEFEROXAMINE], the “log K” value in data set [1] was 30.4.
For the compound `CCCCCCn1ccc(=O)c(O)c1C(=O)NCCN(CCNC(=O)c1c(O)c(=O)ccn1CCCCCC)CCNC(=O)c1c(O)c(=O)ccn1CCCCCC`, the MIC with Staphylococcus aureus stood at 40 µg/mL (≈ 49.4 µM); in the data set on Pseudomonas aeruginosa, 40 µg/mL (≈ 49.4 µM); in the data set with Bacillus subtilis, 40 µg/mL (≈ 49.4 µM); in the data set on Bacillus cereus, 40 µg/mL (≈ 49.4 µM); with Escherichia coli, 80 µg/mL (≈ 98.8 µM).
Regarding `O=C(NCCN(CCNC(=O)c1c(O)c(=O)ccn1CCO)CCNC(=O)c1c(O)c(=O)ccn1CCO)c1c(O)c(=O)ccn1CCO`, the MIC with Staphylococcus aureus stood at 80 µg/mL (≈ 116 µM); with Pseudomonas aeruginosa it was 40 µg/mL (≈ 58 µM); with Bacillus subtilis, 40 µg/mL (≈ 58 µM); in the data set with Bacillus cereus, 40 µg/mL (≈ 58 µM); in the data set with Escherichia coli it was 40 µg/mL (≈ 58 µM).
As for `O=C(NCCN(CCNC(=O)c1c(O)c(=O)ccn1CCOCCO)CCNC(=O)c1c(O)c(=O)ccn1CCOCCO)c1c(O)c(=O)ccn1CCOCCO`, the MIC with Staphylococcus aureus, in the data set on Pseudomonas aeruginosa, with Bacillus subtilis, with Bacillus cereus and with Escherichia coli was 40 µg/mL (≈ 48.7 µM) in each case. For the same compound, the “log K” value in data set [2] was 32.
In the case of `COCCn1ccc(=O)c(O)c1C(=O)NCCN(CCNC(=O)c1c(O)c(=O)ccn1CCOC)CCNC(=O)c1c(O)c(=O)ccn1CCOC`, the MIC came out at 80 µg/mL (≈ 109 µM) with Staphylococcus aureus; 16 µg/mL (≈ 21.9 µM) with Pseudomonas aeruginosa; 40 µg/mL (≈ 54.7 µM) in the data set on Bacillus subtilis; 80 µg/mL (≈ 109 µM) with Bacillus cereus; 16 µg/mL (≈ 21.9 µM) in the data set on Escherichia coli. In data set [2], the “log K” value was found to be 32.3.
Take `O=C(O)CN(CCN(CC(=O)O)Cc1ccccc1O)Cc1ccccc1O`: the “log K” value in data set [1] was 40.
